According to PubChem BioAssay AID248 (DTP/NCI, 2004):
Where “and” joins values, the source holds several entries; their conditions need not be identical. Equal values may be shown once. Inconclusive results and toxic doses are left out. Rule as the data show it: active = T/C of 150% or more; inactive = T/C below 125%.

Test system: L1210 leukemia ip in BDF1 mice, survival T/C
Experiment: NCI In Vivo Anticancer Drug Screen. Data for tumor model L1210 Leukemia (intraperitoneal) in B6D2F1 (BDF1) mice
Conditions: endpoint: mean survival time, higher = longer survival
In short: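 Survival endpoint. Drug-treated group vs vehicle group, expressed as T divided by C. Tumor passaged by transplantation.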

[1] = dose: 100.0 mg/kg/injection, schedule: Q04DX003 (ip), vehicle: Klucel (hydroxypropylcellulose) (HPC)

Measured: T/C

O=C(/C(=C\c1ccccc1)CBr)c1ccc(Br)cc1
inactive: dose: 3.12 mg/kg/injection, schedule: Q01DX009 (ip), vehicle: saline 100 % of control | dose: 6.25 mg/kg/injection, schedule: Q01DX009 (ip), vehicle: saline 100 % of control | dose: 12.5 mg/kg/injection, schedule: Q01DX009 (ip), vehicle: saline 94 % of control and 89 % of control | dose: 12.5 mg/kg/injection, schedule: Q04DX003 (ip), vehicle: saline with Tween-80 96 % of control | dose: 25.0 mg/kg/injection, schedule: Q04DX003 (ip), vehicle: saline with Tween-80 93 % of control | dose: 50.0 mg/kg/injection, schedule: Q04DX003 (ip), vehicle: saline with Tween-80 94 % of control

C(=C(/c1ccccc1)N1CCOCC1)/c1ccccc1
inactive: dose: 100.0 mg/kg/injection, schedule: Q04DX002 (sc), vehicle: olive oil, sesame oil, peanut oil 118 % of control | dose: 200.0 mg/kg/injection, schedule: Q04DX002 (sc), vehicle: olive oil, sesame oil, peanut oil 99 % of control | dose: 400.0 mg/kg/injection, schedule: Q04DX002 (sc), vehicle: olive oil, sesame oil, peanut oil 99 % of control

Nc1nc(SCc2ccccn2)c2ncn(C3OC(CO)C(O)C3O)c2n1 (stereo unspecified)
inactive: dose: 6.25 mg/kg/injection, schedule: Q01DX Z (ip), vehicle: methylcellulose (MC) 106 % of control | dose: 12.5 mg/kg/injection, schedule: Q01DX Z (ip), vehicle: methylcellulose (MC) 104 % of control | dose: 25.0 mg/kg/injection, schedule: Q01DX Z (ip), vehicle: methylcellulose (MC) 112 % of control

O=C(O)C1C2CCC(O2)C1C(=O)Nc1ccccc1 (stereo unspecified)
inactive: dose: 75.0 mg/kg/injection, schedule: Q01DX001 (ip), vehicle: carboxymethylcellulose (CMC) 102 % of control | dose: 150.0 mg/kg/injection, schedule: Q01DX001 (ip), vehicle: carboxymethylcellulose (CMC) 102 % of control | dose: 300.0 mg/kg/injection, schedule: Q01DX001 (ip), vehicle: carboxymethylcellulose (CMC) 101 % of control

CCC(C)(C)c1ccc(Oc2ccccc2)c(N)c1
inactive: dose: 100.0 mg/kg/injection, schedule: Q01DX009 (ip), vehicle: other 88 % of control | dose: 100.0 mg/kg/injection, schedule: Q04DX003 (ip), vehicle: saline with Tween-80 104 % of control | dose: 200.0 mg/kg/injection, schedule: Q01DX009 (ip), vehicle: other 100 % of control | dose: 200.0 mg/kg/injection, schedule: Q04DX003 (ip), vehicle: saline with Tween-80 100 % of control | dose: 400.0 mg/kg/injection, schedule: Q04DX003 (ip), vehicle: saline with Tween-80 98 % of control

Cc1ccc[n+](CC(=O)CCc2ccc(C(=O)C[n+]3cccc(C)c3)cc2)c1
inactive: dose: 0.07 mg/kg/injection, schedule: Q04DX003 (ip), vehicle: saline 94 % of control | dose: 0.14 mg/kg/injection, schedule: Q04DX003 (ip), vehicle: saline 101 % of control

CC1CC2(C)C(CC1=O)CC(C)C1C2CCC2(C)C1CCC2(C)O (stereo unspecified)
inactive: dose: 100.0 mg/kg/injection, schedule: Q01DX009 (ip), vehicle: saline with Tween-80 90 % of control | dose: 200.0 mg/kg/injection, schedule: Q01DX009 (ip), vehicle: saline with Tween-80 90 % of control

Cc1cc(C(=O)c2ccccc2)ccc1O
inactive: dose: 50.0 mg/kg/injection, schedule: Q01DX001 (ip), vehicle: carboxymethylcellulose (CMC) 100 % of control | dose: 100.0 mg/kg/injection, schedule: Q01DX001 (ip), vehicle: carboxymethylcellulose (CMC) 96 % of control | dose: 200.0 mg/kg/injection, schedule: Q01DX001 (ip), vehicle: carboxymethylcellulose (CMC) 91 % of control | dose: 400.0 mg/kg/injection, schedule: Q01DX001 (ip), vehicle: carboxymethylcellulose (CMC) 96 % of control

CC(OC(=O)CCN1CC1)C1CC1 (stereo unspecified)
inactive: dose: 2.5 mg/kg/injection, schedule: Q01DX009 (ip), vehicle: Klucel (hydroxypropylcellulose) (HPC) 103 % of control | dose: 5.0 mg/kg/injection, schedule: Q01DX009 (ip), vehicle: Klucel (hydroxypropylcellulose) (HPC) 102 % of control | dose: 10.0 mg/kg/injection, schedule: Q01DX009 (ip), vehicle: Klucel (hydroxypropylcellulose) (HPC) 100 % of control | dose: 20.0 mg/kg/injection, schedule: Q01DX009 (ip), vehicle: Klucel (hydroxypropylcellulose) (HPC) 101 % of control | dose: 20.0 mg/kg/injection, schedule: Q04DX003 (ip), vehicle: Klucel (hydroxypropylcellulose) (HPC) 103 % of control | dose: 40.0 mg/kg/injection, schedule: Q04DX003 (ip), vehicle: Klucel (hydroxypropylcellulose) (HPC) 93 % of control | dose: 80.0 mg/kg/injection, schedule: Q04DX003 (ip), vehicle: Klucel (hydroxypropylcellulose) (HPC) 101 % of control | [1] 87 % of control

COc1ccnc(SCc2ccccc2)n1
inactive: dose: 100.0 mg/kg/injection, schedule: Q01DX009 (ip), vehicle: Klucel (hydroxypropylcellulose) (HPC) 97 % of control | [1] 100 % of control | dose: 200.0 mg/kg/injection, schedule: Q01DX009 (ip), vehicle: Klucel (hydroxypropylcellulose) (HPC) 95 % of control | dose: 200.0 mg/kg/injection, schedule: Q04DX003 (ip), vehicle: Klucel (hydroxypropylcellulose) (HPC) 100 % of control | dose: 400.0 mg/kg/injection, schedule: Q04DX003 (ip), vehicle: Klucel (hydroxypropylcellulose) (HPC) 102 % of control
